Measurements published in patent publication US8871719B2, “Modified MELK peptides and vaccines containing the same” (OncoTherapy Science, Inc., priority 2010, dated 2014).
“Also recorded” adds a separate entry of the source.

Assays:
[1] = test system: COS7 cells transfected with MELK and HLA-A*2402; assay: Specific CTL activity against transfected COS7 cells; format: cell-based
Protocol: (§1) Specifically, peptide-pulsed A24LCL (1×10^4/well) and tumor cell lines (5×10^4/well) were prepared as stimulator cells. Cultured cells in 48 wells, CTL lines and clones were used as responder cells. IFN-gamma ELISPOT assay and IFN-gamma ELISA assay were performed under manufacture procedure.
The cDNA encoding an open reading frame of target gene or HLA-A*2402 was amplified by PCR. The PCR-amplified products were cloned into pCAGGS vector. The plasmids were transfected into COST, which is the target genes and HLA-A24 negative cell line, using lipofectamine 2000 (Invitrogen) according to the manufacturer's recommended procedures. After 2 days from transfection, the transfected cells were harvested with versene (Invitrogen) and used as stimulator cells (5×10^4 cells/well) for CTL activity assay.

[2] = test system: peptide-pulsed A24LCL cells; assay: In vitro CTL induction, IFN-gamma ELISPOT assay; format: cell-based, human; conditions: for IFN-gamma production of CTLs (ELISPOT): target cells pulsed with cognate peptide vs not pulsed; for CTL inducibility / CTL activity: in vitro stimulation of T-cells by peptide-loaded DCs; for Immunogenicity compared to MELK-A24-9-87_WT: CTL induction from donors B and C
Text: Monocyte-derived dendritic cells (DCs) were used as antigen-presenting cells (APCs) to induce cytotoxic T lymphocyte (CTL) responses against peptides presented on HLA. DCs were generated in vitro as described elsewhere (Nakahara S et al., Cancer Res 2003 Jul. 15, 63(14): 4112-8). Specifically, peripheral blood mononuclear cells (PBMCs) isolated from three healthy donors termed donors A, B and C (HLA-A*2402 positive) by Ficoll-Plaque (Pharmacia) solution were separated by adherence to a plastic tissue culture dish (Becton Dickinson) so as to enrich them as the monocyte fraction. The monocyte-enriched population was cultured in the presence of 1,000 U/ml of granulocyte-macrophage colony-stimulating factor (GM-CSF) (R&D System) and 1,000 U/ml of interleukin (IL)-4 (R&D System) in AIM-V Medium (Invitrogen) containing 2% heat-inactivated autologous serum (AS). After 7 days of culture, the cytokine-induced DCs were pulsed with 20 micro-g/ml of each of the synthesized peptides in the presence of 3 micro-g/ml of beta2-microglobulin for 3 hrs at 37 degrees C. in AIM-V Medium. The generated cells appeared to express DC-associated molecules, such as CD80, CD83, CD86 and HLA class II, on their cell surfaces (data not shown). These peptide-pulsed DCs were then inactivated by X-irradiation (20 Gy) and mixed at a 1:20 ratio with autologous CD8+ T cells, obtained by positive selection with CD8 Positive Isolation Kit (Dynal). These cultures were set up in 48-well plates (Corning); each well contained 1.5×10^4 peptide-pulsed DCs, 3×10^5 CD8+ T cells and 10 ng/ml of IL-7 (R&D System) in 0.5 ml of AIM-V/2% AS medium. 3 days later, these cultures were supplemented with IL-2 (CHIRON) to a final concentration of 20 IU/ml. On days 7 and 14, the T cells were further stimulated with the autologous peptide-pulsed DCs. The DCs were prepared each time by the same way described above. CTLs were tested against peptide-pulsed A24LCL cells after the 3rd round of peptide stimulation on day 21 (Tanaka H et al., Br J Cancer 2001 Jan. 5, 84(1): 94-9; Umano Y et al., Br J Cancer 2001 Apr. 20, 84(8): 1052-7; Uchida N et al., Clin Cancer Res 2004 Dec. 15, 10(24): 8577-86; Suda T et al., Cancer Sci 2006 May, 97(5): 411-9; Watanabe T et al., Cancer Sci 2005 August, 96(8): 498-506).
as §1

[3] = test system: peptide-pulsed A24LCL cells; assay: CTL clones, IFN-gamma ELISA assay; format: cell-based, human; conditions: for IFN-gamma production of CTL clones (ELISA): donor B
Protocol: The dilutions were made to have 0.3, 1, and 3 CTLs/well in 96 round-bottomed micro titer plate (Nalge Nunc International). CTLs were cultured with 1×10^4 cells/well of 2 kinds of human B-lymphoblastoid cell lines, 30 ng/ml of anti-CD3 antibody, and 125 U/ml of IL-2 in a total of […] of AIM-V Medium containing 5% AS. 50 micro-1/well of IL-2 were added to the medium 10 days later so to reach a final concentration of 125 U/ml IL-2. CTL activity was tested on the 14th day, and CTL clones were expanded using the same method as described above (Uchida N et al., Clin Cancer Res 2004 Dec. 15, 10(24): 8577-86; Suda T et al., Cancer Sci 2006 May, 97(5): 411-9; Watanabe T et al., Cancer Sci 2005 August, 96(8): 498-506).
as §1

[4] = test system: peptide-pulsed A24LCL cells; assay: CTL lines, IFN-gamma ELISA assay; format: cell-based, human
Protocol: CTLs were expanded in culture using the method similar to the one described by Riddell et al. (Walter E A et al., N Engl J Med 1995 Oct. 19, 333(16): 1038-44; Riddell S R et al., Nat Med 1996 Feb. 2(2): 216-23). A total of 5×10^4 CTLs were suspended in 25 ml of AIM-V/5% AS medium with 2 kinds of human B-lymphoblastoid cell lines, inactivated by MMC, in the presence of 40 ng/ml of anti-CD3 monoclonal antibody (Pharmingen). One day after initiating the cultures, 120 IU/ml of IL-2 were added to the cultures. The cultures were fed with fresh AIM-V/5% AS medium containing 30 IU/ml of IL-2 on days 5, 8 and 11 (Tanaka H et al., Br J Cancer 2001 Jan. 5, 84(1): 94-9; Umano Y et al., Br J Cancer 2001 Apr. 20, 84(8): 1052-7; Uchida N et al., Clin Cancer Res 2004 Dec. 15, 10(24): 8577-86; Suda T et al., Cancer Sci 2006 May, 97(5): 411-9; Watanabe T et al., Cancer Sci 2005 August, 96(8): 498-506).
as §1

[5] = test system: tumor cell lines MDA-MB-4355 (MELK+, A24+) and KLM-1 (MELK+, A24+); assay: Specific CTL activity against tumor cell lines expressing MELK and HLA-A*2402; format: cell-based, human; conditions: for IFN-gamma production / CTL activity of CTL clone against KLM-1: KLM-1 (MELK+, A24+) compared with KP-1N
Protocol: (§2) TISI, human leukocyte antigen (HLA)-A*2402 positive B-lymphoblastoid cell line, was purchased from the IHWG Cell and Gene Bank (Seattle, Wash.). COS7, MDA-MB-435S and T47D were purchased from ATCC. KLM-1 and KP-1N were purchased from RIKEN cell bank and JCRB cell bank, respectively.
as §1

[6] = test system: T47D (MELK+, A24−) and KP-1N (MELK+, A24−); assay: Specific CTL activity against tumor cell lines expressing MELK but not HLA-A*2402; format: cell-based, human; conditions: T47D and KP-1N (MELK+, A24−)
Protocol: as §2, §1

[7] = donor A, target cells pulsed with cognate peptide vs without peptide pulse
[8] = donor C, target cells pulsed with MELK-A24-9-87_WT vs irrelevant HIV peptide
[9] = target cells pulsed with MELK-A24-9-87_WT vs irrelevant HIV peptide
[10] = donor B, target cells pulsed with MELK-A24-9-87_WT vs irrelevant HIV peptide

Row | Sequence | IFN-gamma production of CTLs (ELISPOT) ([2]; donor B) | CTL inducibility / CTL activity [2] | IFN-gamma production of CTL lines (ELISA) [4, 7] | Immunogenicity compared to MELK-A24-9-87_WT [2] | IFN-gamma production of CTL clones (ELISA) [3, 9] | IFN-gamma production of CTL lines (ELISA) [4, 10] | also measured
1 | EYCPGGELF [MELK-A24-9-87_WT] | no specific IFN-gamma production was detected; also recorded: peptide specific IFN-gamma production was not detected | significant and specific CTL activity | potent IFN-gamma production | – | – | – | Specific CTL activity of CTL clone against controls ([1]; COS7 cells expressing either HLA-A*2402 or MELK): no significant specific CTL activity; Specific CTL activity of CTL clone ([1]; COS7 cells transfected with both MELK and HLA-A*2402): potent CTL activity; also recorded: specific CTL activity; IFN-gamma production of CTLs (ELISPOT) ([2]; donor A): potent IFN-gamma production; also recorded: potential IFN-gamma productive ability; IFN-gamma production of CTL clone (ELISA) ([3]; donor A, target cells pulsed with cognate peptide vs not pulsed): potent IFN-gamma production; IFN-gamma production of CTL lines (ELISA) [4, 8]: no IFN-gamma production; also recorded: CTL line was not established
2 | LYVLMCGFL [SEQ ID NO: 1] | – | – | potent IFN-gamma production | – | – | – | IFN-gamma production / CTL activity of CTL clone against KLM-1 [5]: no IFN-gamma production; IFN-gamma production of CTLs (ELISPOT) ([2]; donor A, listed as MELK-A24-9-199): potent IFN-gamma production; also recorded: potential IFN-gamma productive ability; IFN-gamma production of CTL clone (ELISA) ([3]; donor A, target cells pulsed with cognate peptide vs not pulsed, listed as MELK-A24-9-199): potent IFN-gamma production; also recorded: had the ability to recognize the peptide-pulsed target cells
3 | EYMPGGELF [MELK-A24-9-87_3M] | potent IFN-gamma production; also recorded: potential IFN-gamma productive ability | significant and specific CTL activity; also recorded: CTLs were successfully established | – | superior immunogenicity | potent IFN-gamma production | potent IFN-gamma production | CTL inducibility / CTL activity ([2]; listed as 41): particularly strong CTL inducibility
4 | KYCPGGELF [MELK-A24-9-87_1K] | potent IFN-gamma production; also recorded: potential IFN-gamma productive ability | significant and specific CTL activity; also recorded: CTLs were successfully established | – | superior immunogenicity | potent IFN-gamma production | potent IFN-gamma production | CTL inducibility / CTL activity ([2]; listed as 35): particularly strong CTL inducibility
5 | DYIISQDRL [SEQ ID NO: 2] | – | – | – | – | – | – | IFN-gamma production of CTLs (ELISPOT) ([2]; donor A, listed as MELK-A24-9-96): typical negative data; also recorded: specific IFN-gamma production was not shown
6 | EYCPGGNLF [MELK-A24-9-87_7N] | potent IFN-gamma production; also recorded: potential IFN-gamma productive ability | significant and specific CTL activity; also recorded: CTLs were successfully established | – | superior immunogenicity | potent IFN-gamma production | potent IFN-gamma production | IFN-gamma production / CTL activity of CTL clone against KLM-1 [5]: specific CTL activity; CTL activity of CTL line against tumor cell lines ([5]; MDA-MB-4355 and KLM-1 (MELK+, A24+)): potent CTL activity; also recorded: specific CTL activity; IFN-gamma production of CTLs (ELISPOT) ([2]; donor C): potent IFN-gamma production; also recorded: potential IFN-gamma productive ability; CTL inducibility / CTL activity ([2]; listed as 44): particularly strong CTL inducibility; CTL activity of CTL line against tumor cell lines [6]: without showing CTL activity; IFN-gamma production of CTL clone (ELISA) [3, 8]: potent IFN-gamma production; IFN-gamma production of CTL lines (ELISA) [4, 8]: peptide specific IFN-gamma production; also recorded: IFN-gamma production was detected
7 | TANKIFMVL [SEQ ID NO: 21] | – | – | – | – | – | – | IFN-gamma production of CTLs (ELISPOT) ([2]; donor A, listed as MELK-A24-9-78): potent IFN-gamma production; also recorded: potential IFN-gamma productive ability
8 | VYKRLVEDIL [SEQ ID NO: 23] | – | significant and specific CTL activity | potent IFN-gamma production | – | – | – | IFN-gamma production of CTLs (ELISPOT) ([2]; donor A, listed as MELK-A24-10-637): potent IFN-gamma production; also recorded: potential IFN-gamma productive ability
